US10172829B2 (priority 2014, dated 2019)
Like-named read-outs stand apart in the source and are kept apart here.

What was measured:
[1] = biological target: TcdB protease (Clostridioides difficile, UniProt P18177); assay: biochemical; set-up: species or system Clostridium difficile
[2] = biological target: full length TcdB (Clostridioides difficile, UniProt P18177); settings: read-out: IC50 of inhibition of labeling of the CPD, IP6 activated, AWP-19 labeling
[3] = tested on: human foreskin fibroblast (HFF cells); assay: cells; type: cell-based
[4] = biological target: TcdB (Clostridioides difficile, UniProt P18177); assay: Mouse TcdB toxigenic model; type: in vivo; settings: mice i.p. 25 ng TcdB pretreated with 100 nM ebselen
Chain of TcdB (P18177 2-2366 limits assumed): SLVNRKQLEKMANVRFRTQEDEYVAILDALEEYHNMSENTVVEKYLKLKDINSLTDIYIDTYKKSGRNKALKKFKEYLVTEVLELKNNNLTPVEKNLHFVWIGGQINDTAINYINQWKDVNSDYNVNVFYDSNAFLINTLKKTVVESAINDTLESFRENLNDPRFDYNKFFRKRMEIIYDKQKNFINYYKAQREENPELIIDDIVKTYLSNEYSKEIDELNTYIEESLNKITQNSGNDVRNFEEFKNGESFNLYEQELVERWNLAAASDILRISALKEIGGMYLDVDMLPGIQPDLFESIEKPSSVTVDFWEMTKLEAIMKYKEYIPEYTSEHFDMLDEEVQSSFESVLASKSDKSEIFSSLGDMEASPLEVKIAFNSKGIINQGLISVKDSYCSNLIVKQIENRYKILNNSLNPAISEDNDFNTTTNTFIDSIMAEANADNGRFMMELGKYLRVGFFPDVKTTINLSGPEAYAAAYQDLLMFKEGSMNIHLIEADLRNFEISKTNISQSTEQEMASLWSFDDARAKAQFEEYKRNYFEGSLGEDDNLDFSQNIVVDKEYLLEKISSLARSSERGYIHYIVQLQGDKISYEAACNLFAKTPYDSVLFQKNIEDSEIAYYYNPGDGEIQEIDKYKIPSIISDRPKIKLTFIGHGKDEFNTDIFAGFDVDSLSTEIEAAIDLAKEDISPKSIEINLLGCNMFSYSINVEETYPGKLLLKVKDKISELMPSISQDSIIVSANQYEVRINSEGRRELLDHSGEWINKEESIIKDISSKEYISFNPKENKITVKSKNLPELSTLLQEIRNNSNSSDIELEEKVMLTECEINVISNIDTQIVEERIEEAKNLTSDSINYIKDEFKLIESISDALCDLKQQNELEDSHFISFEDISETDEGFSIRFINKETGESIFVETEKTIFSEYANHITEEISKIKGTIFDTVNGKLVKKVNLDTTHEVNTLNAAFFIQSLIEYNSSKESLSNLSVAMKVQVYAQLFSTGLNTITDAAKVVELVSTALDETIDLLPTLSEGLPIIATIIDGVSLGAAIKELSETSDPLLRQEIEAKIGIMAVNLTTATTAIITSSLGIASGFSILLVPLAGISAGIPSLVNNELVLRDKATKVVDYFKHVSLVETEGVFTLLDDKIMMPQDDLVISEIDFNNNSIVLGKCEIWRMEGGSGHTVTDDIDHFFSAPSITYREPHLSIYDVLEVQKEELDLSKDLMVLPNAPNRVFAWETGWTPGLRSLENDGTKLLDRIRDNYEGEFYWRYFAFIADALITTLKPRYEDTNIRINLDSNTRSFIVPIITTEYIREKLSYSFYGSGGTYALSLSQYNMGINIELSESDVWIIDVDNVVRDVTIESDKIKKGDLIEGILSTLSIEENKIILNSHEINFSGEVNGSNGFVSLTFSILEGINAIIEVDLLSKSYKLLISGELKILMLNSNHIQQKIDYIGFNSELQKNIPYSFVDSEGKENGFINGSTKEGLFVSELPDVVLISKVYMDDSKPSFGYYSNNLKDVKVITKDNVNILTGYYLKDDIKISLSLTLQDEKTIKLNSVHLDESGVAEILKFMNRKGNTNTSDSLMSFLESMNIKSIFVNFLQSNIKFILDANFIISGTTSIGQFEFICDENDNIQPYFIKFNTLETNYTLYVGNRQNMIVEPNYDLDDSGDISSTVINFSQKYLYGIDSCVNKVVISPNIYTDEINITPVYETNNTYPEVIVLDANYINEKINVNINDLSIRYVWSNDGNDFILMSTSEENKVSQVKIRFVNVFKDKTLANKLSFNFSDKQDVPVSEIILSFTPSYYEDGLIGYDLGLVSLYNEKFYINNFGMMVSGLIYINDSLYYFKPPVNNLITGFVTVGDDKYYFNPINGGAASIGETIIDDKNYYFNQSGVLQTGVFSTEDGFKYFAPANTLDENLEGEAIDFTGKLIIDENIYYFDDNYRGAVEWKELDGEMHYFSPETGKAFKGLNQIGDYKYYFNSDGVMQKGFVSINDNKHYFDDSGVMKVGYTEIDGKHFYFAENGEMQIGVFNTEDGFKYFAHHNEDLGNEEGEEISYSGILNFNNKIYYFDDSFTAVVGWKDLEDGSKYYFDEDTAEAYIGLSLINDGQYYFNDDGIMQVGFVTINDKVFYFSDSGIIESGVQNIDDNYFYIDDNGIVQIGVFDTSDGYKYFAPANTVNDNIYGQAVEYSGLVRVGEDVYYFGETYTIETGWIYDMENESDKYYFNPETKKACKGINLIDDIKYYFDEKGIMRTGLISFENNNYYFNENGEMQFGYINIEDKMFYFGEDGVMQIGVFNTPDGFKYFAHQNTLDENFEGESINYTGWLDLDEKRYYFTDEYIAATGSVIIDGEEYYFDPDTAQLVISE

[5] = biological target: T1, TcdB CPD (Clostridioides difficile, UniProt P18177); assay: biochemical; set-up: species or system Clostridium difficile
T1 construct: The compounds were screened against the recombinantly expressed cysteine protease domain; made in house
T1 sequence (P18177 544-799 limits assumed): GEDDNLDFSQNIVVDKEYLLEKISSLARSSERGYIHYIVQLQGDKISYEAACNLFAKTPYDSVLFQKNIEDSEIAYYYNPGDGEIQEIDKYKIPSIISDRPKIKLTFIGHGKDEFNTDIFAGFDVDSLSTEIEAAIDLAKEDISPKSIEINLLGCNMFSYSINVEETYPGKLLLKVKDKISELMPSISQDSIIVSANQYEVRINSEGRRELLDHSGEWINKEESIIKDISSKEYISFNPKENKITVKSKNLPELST

Chain of TcdB protease (P18177 544-797 limits assumed): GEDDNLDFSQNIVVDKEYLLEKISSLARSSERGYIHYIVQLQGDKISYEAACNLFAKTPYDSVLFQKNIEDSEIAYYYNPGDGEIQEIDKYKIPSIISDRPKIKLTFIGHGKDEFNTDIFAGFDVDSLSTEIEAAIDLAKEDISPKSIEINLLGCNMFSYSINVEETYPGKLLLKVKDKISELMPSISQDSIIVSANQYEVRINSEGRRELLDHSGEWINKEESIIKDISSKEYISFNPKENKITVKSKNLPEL

Work on `O=c1c2ccccc2[se]n1-c1ccccc1` [Ebselen, 2-phenyl-1,2-benzoselenazol-3-one] yielded an IC50 [1] of 5.14 µM, an IC50 [2] of 0.0172 µM and an EC50 ([3]; read-out: EC50 of blocking cell rounding) of 0.021 µM. The EC50 ([3]; read-out: EC50 of protective effect against cell rounding) was 0.217 µM, the “changes in vital signs (clinical signs of toxin action)” value ([4]; 72 hours) was “no significant changes in vital signs” and the survival rate ([4]; monitored three days) was 100%.

With `COc1ccc(-n2[se]c3ccccc3c2=O)c(C)c1` [MG-1, 2-(4-methoxy-2-methylphenyl)-1,2-benzoselenazol-3-one] the IC50 [1] was 6.47 µM.

`COc1ccc(C)cc1-n1[se]c2ccccc2c1=O` [MG-2, 2-(2-methoxy-5-methylphenyl)-1,2-benzoselenazol-3-one] showed an IC50 [1] of 5.58 µM.

Compound `COc1ccc(Cl)cc1NC(=O)c1ccccc1[Se][Se]c1ccccc1C(=O)Nc1cc(Cl)ccc1OC` [MG-7, 2,2′-diselane-1,2-diylbis[N-(5-chloro-2-methoxyphenyl)benzamide]] has an IC50 [1] of 9.6 µM.

In the case of `COc1ccc(C(C)(C)C)cc1-n1[se]c2ccccc2c1=O` [MG-8, 2-(2-methoxy-5-t-butylphenyl)-1,2-benzoselenazol-3-one], the IC50 [1] is reported as 8.5 µM.

`Cc1ccc(Cl)c(NC(=O)c2ccccc2[Se][Se]c2ccccc2C(=O)Nc2cc(C)ccc2Cl)c1` [MG-10, 2,2′-diselane-1,2 - diylbis[N-(2-chloro-5-methylphenyl)benzamide]] showed an IC50 [1] of 7.33 µM.

Compound `Cc1ccc(NC(=O)c2ccccc2[Se][Se]c2ccccc2C(=O)Nc2ccc(C)cc2Cl)c(Cl)c1` [MG-12, 2,2′-diselane-1,2-diylbis[N-(2-chloro-4-methylphenyl)benzamide]] has an IC50 [1] of 3.98 µM.

With `Cc1ccc(-n2[se]c3ccccc3c2=O)cc1` [MG-13, 2-(4-methylphenyl)-1,2-benzoselenazol-3-one] the IC50 [1] was 4.9 µM.

Compound `O=C(Nc1ccccc1F)c1ccccc1[Se][Se]c1ccccc1C(=O)Nc1ccccc1F` [MG-31, 2,2′-diselane-1,2-diylbis[N-(2-fluorophenyl)benzamide]] has an IC50 [1] of 4.92 µM.

Compound `O=C(Nc1ccc(F)cc1F)c1ccccc1[Se][Se]c1ccccc1C(=O)Nc1ccc(F)cc1F` [MG-33, 2,2′-diselane-1,2-diylbis[N-(2,4-difluorophenyl)benzamide]] has an IC50 [1] of 2.7 µM.

Compound `O=c1c2ccccc2[se]n1-c1ccc(Cl)cc1F` [MG-34, 2-(4-chloro-2-fluorophenyl)-1,2-benzoselenazol-3-one] has an IC50 [1] of 6.5 µM.

`O=C(Nc1ccc(F)cc1Cl)c1ccccc1[Se][Se]c1ccccc1C(=O)Nc1ccc(F)cc1Cl` [MG-40, 2,2′-diselane-1,2-diylbis[N-(2-chloro-4-fluorophenyl)benzamide]] was tested, and the IC50 [1] was 7.38 µM.

Compound `O=C(Nc1ccc(F)c(Cl)c1)c1ccccc1[Se][Se]c1ccccc1C(=O)Nc1ccc(F)c(Cl)c1` [MG-43, 2,2′-diselane-1,2-diylbis[N-(3-chloro-4-fluorophenyl)benzamide]] has an IC50 [1] of 5.09 µM.

In the case of `O=c1c2ccccc2[se]n1-c1ncccc1O` [MG-48, 2-(3-hydroxypyridin-2-yl)-1,2-benzoselenazol-3-one], the IC50 [1] is reported as 7.44 µM.

`COc1cccc(NC(=O)c2ccccc2[Se][Se]c2ccccc2C(=O)Nc2cccc(OC)c2)c1` [MG-56, 2,2′-diselane-1,2-diylbis[N-(3-methoxyphenyl)benzamide]] was tested, and the IC50 [1] was 3.95 µM.

Compound `Cc1c(Cl)cccc1NC(=O)c1ccccc1[Se][Se]c1ccccc1C(=O)Nc1cccc(Cl)c1C` [MG-61, 2,2′-diselane-1,2-diylbis[N-(3-chloro-2-methylphenyl)benzamide]] has an IC50 [1] of 5.97 µM.

Compound `O=c1c2ccccc2[se]n1-c1ccccc1O` [MG-174, 2-(2-hydroxyphenyl)-1,2-benzoselenazol-3-one] has an IC50 [1] of 4.86 µM.

`Cc1cc(C)c2c(=O)n(CC(=O)NCCCSC3CCCCC3)sc2n1` [STF 102625] showed an IC50 [5] of 1.32 µM.

Work on `COC(=O)N1CCN(C(=O)Cn2sc3nc(C)cc(C)c3c2=O)CC1` [STF 102635] yielded an IC50 [5] of 4.84 µM.

For `CCOCCCNC(=O)Cn1sc2nc(C)cc(C)c2c1=O` [STF 102644], the IC50 [5] was 2.81 µM.

In the case of `Cc1cc(C)c2c(=O)n(CC(=O)NC(C)CCc3ccccc3)sc2n1` (stereo not drawn) [STF 102645], the IC50 [5] is reported as 3.99 µM.

`Cc1cc(C)c2c(=O)n(CC(=O)NCc3ccc4c(c3)OCO4)sc2n1` [STF 102654] gave an IC50 [5] of 3.9 µM.

`Cc1cc(C)c2c(=O)n(CC(=O)NCCc3ccc(Cl)cc3)sc2n1` [STF 102655] showed an IC50 [5] of 3.14 µM.

Work on `CCCCNC(=O)Cn1sc2nc(C)cc(C)c2c1=O` [STF 102686] yielded an IC50 [5] of 1.98 µM.

For `COCCNC(=O)Cn1sc2nc(C)cc(C)c2c1=O` [STF 102766], the IC50 [5] was 2.38 µM.
